Where “and” joins values, the source holds several entries; their conditions need not be identical. Equal entries are not always repeated. Where two headings read alike, the source gives them in different places.
System: RNAi clones targeting adenosine kinase (ADKIN; Tb927.6.2300) in T. brucei NY-SM cells
Assay: Susceptibility of ADKIN RNAi clones (tetracycline-induced / non-induced)
Format: cell-based, Trypanosoma brucei brucei
Conditions: for IC50: single determinations
Description: Susceptibility assays with NY-SM[51], BS221[48] and TbAT1-KO[48] (derived from BS221) cells were performed using 10 concentrations of a 4-fold compound dilution series starting at 64 µM. Parasites were seeded at 4 × 10^3 parasites per well and exposed to drug compound for 72 h, after which resazurin (final concentration of 10 µg mL^−1) was added to the plates. Fluorescence intensities were determined after 6 h.
The RNAi library[54] was induced for 68 h by the addition of 1 µg mL^−1 of tetracycline. After induction, the cells were exposed to different concentrations of 9 (corresponding to the IC98, IC99). Cells were maintained until a recovery of the resistant population was observed. Genomic DNA of the resistant parasite population was isolated, and the RNAi inserts were identified by PCR amplification, followed by cloning in highly competent Escherichia coli and sequencing. To validate the involvement of the identified genes, the RNAi inserts were back-cloned into a p2T7Bern vector[54] and transformed into NY-SM cells (the background strain of the RNAi library). The transformed NY-SM cells were cloned by limiting dilution. Two clones of each RNAi insert were exposed to tetracycline to induce the RNAi phenotype and subsequently subjected to different concentrations of 9 to determine the susceptibility of induced versus non-induced clones.
Drug susceptibility assays with induced clones were performed as described above for NY-SM cells, with an initial induction period of 68 h with 1 µg mL^−1 tetracycline prior to the start of the drug susceptibility assay.

## Nc1ncnc2c1ccn2[C@@H]1O[C@H](CO)C[C@H]1O [Compound 9, 3’-deoxytubercidin]
  fold reduced susceptibility in ADKIN knockdown cell lines: ~ 20 fold
ADKIN A +, 0.000976563 µM
  Inhibition (%): 2.55%
ADKIN A +, 0.00390625 µM
  Inhibition (%): 2.6%
ADKIN A +, 0.0625 µM
  Inhibition (%): 42% and 36% and 30%
ADKIN A +, 0.25 µM
  Inhibition (%): 91% and 95%
ADKIN B +, 0.25 µM
  Inhibition (%): 93% and 91% and 98%
Trypanosoma brucei, ADKIN A +, 0.0625 µM
  inhibition at 0.0625 µM: 33%
Trypanosoma brucei, ADKIN A +, 0.25 µM
  inhibition at 0.25 µM: 94%
Trypanosoma brucei, ADKIN A +
  inhibition at 1 µM: 99%
  inhibition at 4 µM: 99%
  inhibition at 16 µM: 100%
  inhibition at 64 µM: 99%
Trypanosoma brucei, ADKIN B +, 0.000244141 µM
  inhibition at 0.000244141 µM: 0%
Trypanosoma brucei, ADKIN B +, 0.000976563 µM
  inhibition at 0.000976563 µM: 0%
Trypanosoma brucei, ADKIN B +, 0.00390625 µM
  inhibition at 0.00390625 µM: 0%
Trypanosoma brucei, ADKIN B +, 0.015625 µM
  inhibition at 0.015625 µM: 0%
Trypanosoma brucei, ADKIN B +, 0.25 µM
  inhibition at 0.25 µM: 96%
Trypanosoma brucei, ADKIN B +
  inhibition at 1 µM: 99%
  inhibition at 4 µM: 99%
  inhibition at 16 µM: 100%
  inhibition at 64 µM: 100%
Trypanosoma brucei, read-out: EC50, ADKIN RNAi clones before knockdown
  EC50: 0.0077 ± 0.00017 µM
Trypanosoma brucei, read-out: EC50 upon ADKIN knockdown
  EC50: 0.1 ± 0.005 µM
Trypanosoma brucei, read-out: IC50, ADKIN A +, clone A, tetracycline-induced
  IC50: 0.101 µM
Trypanosoma brucei, read-out: IC50, ADKIN A -, clone A, non-induced
  IC50: 0.0069 µM
Trypanosoma brucei, read-out: IC50, ADKIN B +, clone B, tetracycline-induced
  IC50: 0.0985 µM
read-out: IC50, ADKIN A +, clone A, tetracycline-induced
  IC50: 0.117 µM and 0.123 µM and 0.092 µM and 0.0784 µM and 0.0889 µM and 0.0957 µM and 0.111 µM
read-out: IC50, ADKIN A -, clone A, non-induced
  IC50: 0.0077 µM and 0.0072 µM and 0.0081 µM and 0.0079 µM and 0.0083 µM and 0.0078 µM and 0.0074 µM
read-out: IC50, ADKIN B +, clone B, tetracycline-induced
  IC50: 110 nM and 121 nM and 120 nM (2×) and 109 nM and 132 nM and 127 nM

— article PMC6895180 (Nature Communications, 2019)
